Measured values reported in US20220064291A1, “METHODS OF USING BUTYROPHILIN ANTIBODIES FOR TREATING HIV INFECTION” (Merck Sharp & Dohme Corp., priority 2018, published 2022).

Assays:
[1] = test system: HIV latent primary CD4+ T cells; experiment: Competition with recombinant BTN-Fc proteins against anti-BTN3A 20.1-mediated virus reactivation; type: cell-based, human; conditions: recombinant Fc proteins 0.03-10 μg/ml; 24 h; FIG. 6
Procedure: To confirm the specificity of anti-BTN3A antibody-mediated activity on latent virus activity and T cell activation, we performed competition experiments using recombinant BTN proteins. Briefly, 96-well flat bottom tissue culture plates (Corning) were coated with anti-CD3 (1 μg/ml) and anti-BTN3A 20.1 antibody (5 μg/ml) in PBS for 16 h in a 4° C. refrigerator. The next day, antibodies were aspirated using a multichannel pipette and various concentrations of recombinant BTN-Fc proteins BTN3A1-Fc and BTN3A2-Fc (10 μg/ml, 3 μg/ml, 1 μg/ml, 0.3 μg/ml, 0.1 μg/ml, and 0.03 μg/ml) were added to antibody coated plates in 2% FBS (in PBS). BTN2A2-Fc and human IgG Fc were used as controls. After 30 min incubation at RT recombinant Fc proteins were aspirated using a multichannel pipette. Next, HIV latent primary CD4+ T cells from two donors were added to the antibody coated plates in duplicates at 125,000 cells/well in 200 ul of primary cell media (RPMI with 10% FBS, 50 μg/ml Primocin™). At 24h post treatment virus reactivation was measured using a Nano-Glo® Luciferase Assay (Promega) (FIG. 6).

human CD4+ T cells = experiment: Inhibition of anti-CD3 (TCR)-mediated T cell activation by recombinant butyrophilin-Fc proteins, bead- and plate-based assays; conditions: anti-CD3 stimulation, FIG. 3
Procedure: To characterize the role of butyrophilins in regulating T cell responses, T cell assays were performed using recombinant human butyrophilin-Fc proteins. Specifically, we assessed the role of butyrophilins in inhibiting T cell receptor (TCR)-mediated T cell activation by anti-CD3 antibody (clone OKT3). Experiments were performed in bead- and plate-based formats.
Briefly, PBMCs were isolated from healthy human donors (Biological Specialty Corporation, Colmar, Pa.). To generate T cell blasts, PBMCs were treated with IL-2 (4u/ml) and PHA (1 μg/ml) in RPMI media containing 10% Fetal bovine serum (Gibco, Gaithersburg, Md.), penicillin (100U/ml)/streptomycin (0.1 mg/ml) (Gibco, Gaithersburg, Md.), and L-Glutamine (2 mM) (Gibco, Gaithersburg, Md.) at 37° C. in a CO2 incubator for 7 days. Fresh media was added once every 3 days. […]
4. […] T cell activation was measured based on IFNγ expression using a V-PLEX proinflammatory panel 1 human assay (Meso Scale Discovery, Rockville, Md.) (FIG. 3A-C).
Sterile 96-well flat bottom tissue culture plates (Corning) were coated with 1 μg/ml of anti-CD3 antibody (Clone OKT3, BD Pharmingen) in PBS+/− the following Fc-fusion proteins: BTN2A2-Fc, BTN3A1-Fc, or human IgG Fc. […] T cell activation was measured based on IFNγ expression using a V-PLEX proinflammatory panel 1 human assay (Meso Scale Discovery, Rockville, Md.) (FIG. 3D).

BTN3A1-Fc: recombinant human butyrophilin-Fc fusion protein, R&D systems
inhibition of anti-BTN3 20.1 Ab-mediated latent HIV activation and T cell activation [1]: dose-dependent inhibition
activation of human CD4+ T cells (IFNγ production, T cell proliferation, IL-2 production) (human CD4+ T cells): block activation
